Reference: BindingDB's records for patent US9796704 (SYMPHONY EVOLUTION, INC., 2017)

How the values were obtained:
Test in all cases: AlphaScreen Assay
[1] = molecular target: Receptor tyrosine-protein kinase erbB-2 (Homo sapiens, UniProt P04626)
[2] = molecular target: Vascular endothelial growth factor receptor 1 (Homo sapiens, UniProt P17948)
Ephrin type-A receptor 2 = Ephrin type-A receptor 2 (Homo sapiens, UniProt P29317)
[3] = molecular target: Vascular endothelial growth factor receptor 2 (Homo sapiens, UniProt P35968)
Ephrin type-B receptor 4 = molecular target: T1, Ephrin type-B receptor 4 (Homo sapiens, UniProt P54760)
T1 sequence (P54760 whole entry): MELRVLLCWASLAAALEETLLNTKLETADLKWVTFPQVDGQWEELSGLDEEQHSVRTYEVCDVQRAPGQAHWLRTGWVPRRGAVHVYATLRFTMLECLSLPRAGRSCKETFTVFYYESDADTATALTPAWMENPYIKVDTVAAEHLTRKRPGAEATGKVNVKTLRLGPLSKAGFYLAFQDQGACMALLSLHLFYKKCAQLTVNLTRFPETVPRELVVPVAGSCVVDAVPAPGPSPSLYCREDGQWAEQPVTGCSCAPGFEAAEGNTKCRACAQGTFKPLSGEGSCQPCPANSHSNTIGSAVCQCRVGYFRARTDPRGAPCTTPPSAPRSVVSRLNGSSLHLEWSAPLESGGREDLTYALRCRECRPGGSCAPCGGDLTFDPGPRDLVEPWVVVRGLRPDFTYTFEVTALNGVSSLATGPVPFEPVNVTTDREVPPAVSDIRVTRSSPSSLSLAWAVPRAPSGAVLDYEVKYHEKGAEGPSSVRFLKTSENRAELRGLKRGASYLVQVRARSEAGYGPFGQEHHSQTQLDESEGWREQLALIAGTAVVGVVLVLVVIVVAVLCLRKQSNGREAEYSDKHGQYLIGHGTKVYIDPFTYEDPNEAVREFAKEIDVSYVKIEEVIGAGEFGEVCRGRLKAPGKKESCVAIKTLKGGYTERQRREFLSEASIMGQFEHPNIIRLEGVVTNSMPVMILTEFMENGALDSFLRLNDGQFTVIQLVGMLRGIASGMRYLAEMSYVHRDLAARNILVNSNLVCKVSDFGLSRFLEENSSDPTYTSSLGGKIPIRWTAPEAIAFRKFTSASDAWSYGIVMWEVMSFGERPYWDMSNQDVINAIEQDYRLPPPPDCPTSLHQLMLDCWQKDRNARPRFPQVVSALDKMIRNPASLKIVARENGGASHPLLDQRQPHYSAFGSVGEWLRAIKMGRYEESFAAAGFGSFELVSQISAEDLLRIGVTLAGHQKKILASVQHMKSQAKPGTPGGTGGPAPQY

Vascular endothelial growth factor receptor 2, sequence (P35968 whole entry): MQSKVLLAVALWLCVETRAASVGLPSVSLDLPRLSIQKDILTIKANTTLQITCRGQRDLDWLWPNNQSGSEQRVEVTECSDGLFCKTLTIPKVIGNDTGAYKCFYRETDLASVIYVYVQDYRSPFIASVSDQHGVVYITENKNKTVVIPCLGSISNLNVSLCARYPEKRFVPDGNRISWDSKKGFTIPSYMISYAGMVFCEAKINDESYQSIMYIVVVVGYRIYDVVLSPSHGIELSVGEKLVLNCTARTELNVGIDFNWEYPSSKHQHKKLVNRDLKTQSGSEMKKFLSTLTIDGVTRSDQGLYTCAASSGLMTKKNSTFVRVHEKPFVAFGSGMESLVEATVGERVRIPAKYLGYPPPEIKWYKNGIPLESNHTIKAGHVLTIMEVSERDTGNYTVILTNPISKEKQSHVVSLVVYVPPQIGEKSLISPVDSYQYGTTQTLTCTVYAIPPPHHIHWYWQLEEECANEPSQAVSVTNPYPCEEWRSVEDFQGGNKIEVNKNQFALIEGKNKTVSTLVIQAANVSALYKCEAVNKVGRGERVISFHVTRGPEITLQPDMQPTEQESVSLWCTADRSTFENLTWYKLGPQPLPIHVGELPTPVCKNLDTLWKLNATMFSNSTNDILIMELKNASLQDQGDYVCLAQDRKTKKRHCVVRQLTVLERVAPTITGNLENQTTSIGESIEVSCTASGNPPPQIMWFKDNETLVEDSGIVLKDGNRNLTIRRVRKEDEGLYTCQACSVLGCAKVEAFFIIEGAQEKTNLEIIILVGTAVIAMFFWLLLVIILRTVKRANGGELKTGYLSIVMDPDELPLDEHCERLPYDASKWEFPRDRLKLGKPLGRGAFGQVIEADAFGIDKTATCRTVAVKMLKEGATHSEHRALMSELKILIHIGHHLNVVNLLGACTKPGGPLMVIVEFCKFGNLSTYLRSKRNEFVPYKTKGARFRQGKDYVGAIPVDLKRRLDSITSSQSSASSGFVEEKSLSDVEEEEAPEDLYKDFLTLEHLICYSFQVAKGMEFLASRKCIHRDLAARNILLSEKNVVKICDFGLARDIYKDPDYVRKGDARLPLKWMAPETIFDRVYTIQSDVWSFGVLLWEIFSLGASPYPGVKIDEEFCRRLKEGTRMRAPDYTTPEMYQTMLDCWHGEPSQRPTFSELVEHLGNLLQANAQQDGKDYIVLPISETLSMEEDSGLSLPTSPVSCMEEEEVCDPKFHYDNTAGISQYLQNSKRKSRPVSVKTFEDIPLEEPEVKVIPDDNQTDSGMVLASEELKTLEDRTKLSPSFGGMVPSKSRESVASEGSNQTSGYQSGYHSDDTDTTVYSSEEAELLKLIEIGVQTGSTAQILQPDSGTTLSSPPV
Vascular endothelial growth factor receptor 1, sequence (P17948 whole entry): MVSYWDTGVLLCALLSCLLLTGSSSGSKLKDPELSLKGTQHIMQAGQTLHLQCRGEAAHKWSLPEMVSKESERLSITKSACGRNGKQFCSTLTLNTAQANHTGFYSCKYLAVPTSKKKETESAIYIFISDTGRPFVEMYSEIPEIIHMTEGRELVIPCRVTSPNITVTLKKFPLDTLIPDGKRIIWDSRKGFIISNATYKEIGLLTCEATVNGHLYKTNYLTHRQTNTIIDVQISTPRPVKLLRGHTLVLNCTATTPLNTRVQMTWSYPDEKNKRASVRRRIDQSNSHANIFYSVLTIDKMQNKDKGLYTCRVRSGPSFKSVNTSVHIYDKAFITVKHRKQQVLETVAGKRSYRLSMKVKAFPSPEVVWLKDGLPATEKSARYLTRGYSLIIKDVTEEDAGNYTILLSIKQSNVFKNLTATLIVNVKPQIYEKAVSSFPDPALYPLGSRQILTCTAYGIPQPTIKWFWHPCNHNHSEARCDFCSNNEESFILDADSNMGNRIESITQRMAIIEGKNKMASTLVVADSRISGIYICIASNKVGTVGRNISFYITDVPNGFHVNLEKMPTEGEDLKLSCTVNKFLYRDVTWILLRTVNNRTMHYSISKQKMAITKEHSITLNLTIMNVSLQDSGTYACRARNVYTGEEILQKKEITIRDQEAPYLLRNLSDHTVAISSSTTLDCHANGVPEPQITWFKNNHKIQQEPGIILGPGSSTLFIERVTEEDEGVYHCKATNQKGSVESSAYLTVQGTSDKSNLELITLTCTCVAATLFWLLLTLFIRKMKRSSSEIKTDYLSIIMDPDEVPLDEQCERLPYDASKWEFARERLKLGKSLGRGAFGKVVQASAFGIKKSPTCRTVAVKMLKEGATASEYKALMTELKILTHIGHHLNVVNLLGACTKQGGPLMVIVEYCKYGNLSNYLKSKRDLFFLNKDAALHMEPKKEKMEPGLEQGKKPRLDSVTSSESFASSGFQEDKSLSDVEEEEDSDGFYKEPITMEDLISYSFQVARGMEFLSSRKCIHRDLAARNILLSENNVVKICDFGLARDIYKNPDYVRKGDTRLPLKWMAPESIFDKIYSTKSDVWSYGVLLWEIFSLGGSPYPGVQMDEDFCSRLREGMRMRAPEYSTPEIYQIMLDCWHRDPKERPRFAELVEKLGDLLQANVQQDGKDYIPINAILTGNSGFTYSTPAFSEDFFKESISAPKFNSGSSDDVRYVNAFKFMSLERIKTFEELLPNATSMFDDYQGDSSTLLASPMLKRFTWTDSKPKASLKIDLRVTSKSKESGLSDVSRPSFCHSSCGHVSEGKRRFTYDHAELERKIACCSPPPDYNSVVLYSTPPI
Receptor tyrosine-protein kinase erbB-2, sequence (P04626 whole entry): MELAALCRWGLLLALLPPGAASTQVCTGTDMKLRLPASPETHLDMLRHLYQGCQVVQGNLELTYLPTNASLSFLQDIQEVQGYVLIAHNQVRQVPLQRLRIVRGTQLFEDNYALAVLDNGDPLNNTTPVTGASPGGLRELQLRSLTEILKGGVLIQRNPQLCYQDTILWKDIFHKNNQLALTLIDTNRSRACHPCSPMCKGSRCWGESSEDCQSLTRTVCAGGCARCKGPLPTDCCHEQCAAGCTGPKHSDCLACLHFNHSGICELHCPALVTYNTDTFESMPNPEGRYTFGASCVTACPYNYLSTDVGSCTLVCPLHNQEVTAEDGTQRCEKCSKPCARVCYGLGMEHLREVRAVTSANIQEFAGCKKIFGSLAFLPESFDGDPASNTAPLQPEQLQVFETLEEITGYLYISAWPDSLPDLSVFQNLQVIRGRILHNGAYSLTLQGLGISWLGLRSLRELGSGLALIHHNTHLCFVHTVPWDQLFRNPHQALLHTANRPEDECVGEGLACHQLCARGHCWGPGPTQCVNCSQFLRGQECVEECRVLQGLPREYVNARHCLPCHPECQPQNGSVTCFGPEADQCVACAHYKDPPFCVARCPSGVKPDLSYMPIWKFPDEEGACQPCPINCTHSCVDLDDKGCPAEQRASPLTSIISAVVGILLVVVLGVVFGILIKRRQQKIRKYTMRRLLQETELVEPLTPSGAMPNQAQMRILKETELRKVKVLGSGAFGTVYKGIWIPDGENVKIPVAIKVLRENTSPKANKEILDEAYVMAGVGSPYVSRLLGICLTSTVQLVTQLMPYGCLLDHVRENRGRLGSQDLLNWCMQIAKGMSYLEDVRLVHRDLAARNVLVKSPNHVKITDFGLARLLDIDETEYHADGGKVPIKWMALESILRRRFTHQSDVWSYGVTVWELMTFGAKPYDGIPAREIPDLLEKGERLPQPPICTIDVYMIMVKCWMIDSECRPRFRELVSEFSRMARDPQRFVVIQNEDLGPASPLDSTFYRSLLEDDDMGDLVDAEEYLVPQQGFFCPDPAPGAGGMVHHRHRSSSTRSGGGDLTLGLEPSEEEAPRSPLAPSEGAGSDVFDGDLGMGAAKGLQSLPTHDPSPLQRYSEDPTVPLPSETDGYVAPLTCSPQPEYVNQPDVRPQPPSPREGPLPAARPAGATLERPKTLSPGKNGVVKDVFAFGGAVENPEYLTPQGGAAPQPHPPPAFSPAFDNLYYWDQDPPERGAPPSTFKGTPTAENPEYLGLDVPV
Ephrin type-A receptor 2, sequence (P29317 whole entry): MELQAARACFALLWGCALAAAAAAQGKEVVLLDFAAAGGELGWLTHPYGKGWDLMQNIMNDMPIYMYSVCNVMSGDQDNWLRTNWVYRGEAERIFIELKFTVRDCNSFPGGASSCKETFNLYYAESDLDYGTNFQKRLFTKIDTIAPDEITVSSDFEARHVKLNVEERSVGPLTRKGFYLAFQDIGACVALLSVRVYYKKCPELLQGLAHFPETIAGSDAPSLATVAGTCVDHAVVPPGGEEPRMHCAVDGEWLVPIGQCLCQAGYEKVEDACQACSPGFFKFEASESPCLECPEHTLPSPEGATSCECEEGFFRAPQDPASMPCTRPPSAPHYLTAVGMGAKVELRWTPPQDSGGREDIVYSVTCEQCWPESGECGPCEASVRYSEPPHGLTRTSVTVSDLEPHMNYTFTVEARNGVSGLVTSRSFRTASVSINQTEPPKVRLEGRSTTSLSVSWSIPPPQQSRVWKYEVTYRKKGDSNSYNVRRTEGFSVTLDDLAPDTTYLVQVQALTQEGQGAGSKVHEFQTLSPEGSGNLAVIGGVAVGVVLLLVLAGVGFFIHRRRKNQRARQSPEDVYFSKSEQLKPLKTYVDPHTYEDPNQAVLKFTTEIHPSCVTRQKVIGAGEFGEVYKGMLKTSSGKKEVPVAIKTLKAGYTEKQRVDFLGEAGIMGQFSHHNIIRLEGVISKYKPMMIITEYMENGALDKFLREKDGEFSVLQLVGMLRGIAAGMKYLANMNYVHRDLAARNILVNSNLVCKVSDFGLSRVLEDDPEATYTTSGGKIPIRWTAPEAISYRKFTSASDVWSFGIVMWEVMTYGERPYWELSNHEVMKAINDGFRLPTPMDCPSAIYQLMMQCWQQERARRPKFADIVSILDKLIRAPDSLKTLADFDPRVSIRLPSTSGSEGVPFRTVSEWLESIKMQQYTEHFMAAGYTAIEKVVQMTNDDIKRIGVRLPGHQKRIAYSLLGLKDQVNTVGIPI

| Structure (SMILES) | IC50 [1] | IC50 [2] | IC50 (Ephrin type-A receptor 2) | IC50 [3] | IC50 (Ephrin type-B receptor 4) |
| --- | --- | --- | --- | --- | --- |
| COc1cc2c(Nc3cc(Cl)c(Br)cc3F)ncnc2cc1OCC1CO[C@@H]2[C@@H](OC)CO[C@H]12 (some centres not stated) [US9796704, Entry 41] | in the range around 525 nM | in the range around 525 nM |  |  |  |
| COc1cc2c(Nc3ccc(Cl)c(Cl)c3)ncnc2cc1OC[C@@H]1CN2CCC[C@H]2CO1 [US9796704, Entry 34] | < 50 nM |  | in the range around 525 nM | in the range around 525 nM | in the range around 525 nM |
| COc1cc2c(Nc3ccc(Cl)c(Cl)c3)ncnc2cc1OCC1CC2CCC(C1)N2C (configuration not stated) [US9796704, Entry 58] |  | in the range around 10500 nM |  |  |  |
| COc1cc2c(Nc3ccc(Cl)c(Cl)c3)ncnc2cc1OC[C@H]1CN2CCC[C@H]2CO1 [US9796704, Entry 35] | in the range around 525 nM |  | in the range around 525 nM |  | in the range around 525 nM |
| COc1cc2c(Nc3ccc(F)c(F)c3)ncnc2cc1O[C@@H]1CO[C@@H]2[C@H]1OC[C@H]2F [US9796704, Entry 111] | in the range around 525 nM |  | in the range around 525 nM | in the range around 525 nM | in the range around 525 nM |
| CCN1CCCC1c1nc(COc2cc3ncnc(Nc4ccc(Cl)c(Cl)c4)c3cc2OC)cs1 (configuration not stated) [US9796704, Entry 256] | in the range around 10500 nM |  | in the range around 10500 nM | in the range around 10500 nM | in the range around 525 nM |
| COc1cc2c(Nc3ccc(Br)c(Cl)c3F)ncnc2cc1OC[C@@H]1C[C@@H]2CN(S(C)(=O)=O)C[C@@H]2C1 [US9796704, Entry 6] | in the range around 525 nM |  | in the range around 525 nM | in the range around 525 nM | < 50 nM |
| COc1cc2c(Nc3ccc(Cl)c(Cl)c3)ncnc2cc1OCC1CN2CSC[C@H]2CO1 (some centres not stated) [US9796704, Entry 56] |  | in the range around 10500 nM | in the range around 10500 nM | in the range around 10500 nM |  |
| COc1cc2c(Nc3ccc(Cl)c(Cl)c3F)ncnc2cc1OC[C@H]1C[C@@H]2CN(C)C[C@@H]2C1 [US9796704, Entry 9] | in the range around 525 nM |  | in the range around 525 nM | in the range around 525 nM | in the range around 525 nM |
| CCN1CCCC1c1noc(COc2cc3ncnc(Nc4ccc(Cl)c(Cl)c4)c3cc2OC)n1 (configuration not stated) [US9796704, Entry 255] | in the range around 10500 nM |  | in the range around 10500 nM | in the range around 10500 nM | in the range around 525 nM |
| COc1cc2c(Nc3ccc(Cl)c(Cl)c3F)ncnc2cc1OC[C@@H]1CN2CCC[C@H]2C(=O)N1 [US9796704, Entry 51] |  | in the range around 10500 nM | in the range around 10500 nM | in the range around 10500 nM |  |
| COc1cc2c(Nc3ccc(Cl)c(Cl)c3F)ncnc2cc1OCC1CCC2CCCCN2C1 (configuration not stated) [US9796704, Entry 83] |  |  | in the range around 525 nM | in the range around 525 nM | in the range around 525 nM |
| COc1cc2c(Nc3ccc(Cl)c(Cl)c3)ncnc2cc1OCc1cccc2nsnc12 [US9796704, Entry 159] |  |  | in the range around 525 nM | in the range around 525 nM | in the range around 525 nM |
| COc1cc2c(Nc3ccc(Cl)c(Cl)c3)ncnc2cc1OCc1cc(Cl)cc2c1OCOC2 [US9796704, Entry 174] |  |  | in the range around 10500 nM | in the range around 525 nM | in the range around 10500 nM |
| COc1cc2c(Nc3cc(C(F)(F)F)ccc3Br)ncnc2cc1O[C@@H]1CO[C@@H]2[C@H]1OC[C@H]2F [US9796704, Entry 124] |  |  | in the range around 525 nM | in the range around 525 nM | in the range around 525 nM |
| COc1cc2c(Nc3cc(C)cc(C)c3)ncnc2cc1O[C@@H]1CO[C@@H]2[C@H]1OC[C@H]2F [US9796704, Entry 133] |  |  | in the range around 525 nM | in the range around 525 nM | in the range around 525 nM |

| Structure (SMILES) | IC50 [1] | IC50 [2] | IC50 (Ephrin type-A receptor 2) | IC50 [3] | IC50 (Ephrin type-B receptor 4) |
| --- | --- | --- | --- | --- | --- |
| COc1cc2c(Nc3ccc(Cl)c(Cl)c3)ncnc2cc1OCc1c(C)cc(C)cc1C [US9796704, Entry 178] |  |  | in the range around 10500 nM | in the range around 10500 nM | in the range around 10500 nM |
| C=CCCCCN1CCOC(COc2cc3ncnc(Nc4ccc(Cl)c(Cl)c4)c3cc2OC)C1 (configuration not stated) [US9796704, Entry 274] | in the range around 10500 nM |  | in the range around 10500 nM | in the range around 10500 nM | in the range around 10500 nM |
| COc1cc(Nc2ncnc3cc(O[C@@H]4CO[C@@H]5[C@H]4OC[C@H]5F)c(OC)cc23)c(OC)cc1Cl [US9796704, Entry 136] |  |  | in the range around 525 nM | in the range around 525 nM | in the range around 525 nM |
| COc1cc2c(Nc3ccc(F)cc3Cl)ncnc2cc1O[C@@H]1CO[C@@H]2[C@H]1OC[C@H]2F [US9796704, Entry 85] |  |  | in the range around 525 nM | in the range around 525 nM | in the range around 525 nM |
| COC(=O)CCN1CCOC(COc2cc3ncnc(Nc4ccc(Cl)c(Cl)c4)c3cc2OC)C1 (configuration not stated) [US9796704, Entry 276] | in the range around 10500 nM |  | in the range around 10500 nM | in the range around 10500 nM | in the range around 10500 nM |
| COc1cc2c(Nc3ccc(Cl)c(Cl)c3)ncnc2cc1OCc1nc(-c2ccc(Cl)cc2)no1 [US9796704, Entry 168] |  |  | in the range around 525 nM | in the range around 525 nM | in the range around 525 nM |
| COc1cc2c(Nc3c(F)cc(F)cc3F)ncnc2cc1O[C@@H]1CO[C@@H]2[C@H]1OC[C@H]2F [US9796704, Entry 100] |  |  | in the range around 525 nM | in the range around 525 nM | in the range around 525 nM |
| COc1cc2c(Nc3ccc(Br)c(Cl)c3F)ncnc2cc1OC[C@@H]1CN2CCC[C@H]2CO1 [US9796704, Entry 37] | < 50 nM |  |  |  | in the range around 525 nM |
| COc1cc2c(Nc3ccc(F)c(Cl)c3F)ncnc2cc1OCC1CO[C@@H]2[C@@H](OC)CO[C@H]12 (some centres not stated) [US9796704, Entry 45] |  |  | in the range around 10500 nM | in the range around 10500 nM | in the range around 10500 nM |
| COc1cc2c(Nc3ccc(Br)c(Cl)c3)ncnc2cc1O[C@H]1CO[C@@H]2[C@@H](OC)[C@@H](OC)O[C@@H]21 [US9796704, Entry 82] |  |  | in the range around 525 nM | in the range around 525 nM | in the range around 525 nM |
| COc1cc2c(Nc3ccc(Cl)c(Cl)c3)ncnc2cc1OCC1CO[C@@H]2C(OC)CO[C@H]12 (some centres not stated) [US9796704, Entry 47] |  |  | in the range around 10500 nM | in the range around 10500 nM | in the range around 10500 nM |
| COc1cc2c(Nc3ccccc3Br)ncnc2cc1O[C@@H]1CO[C@@H]2[C@H]1OC[C@H]2F [US9796704, Entry 128] |  |  | in the range around 525 nM | in the range around 525 nM | in the range around 525 nM |
| COc1cc2c(Nc3ccc(F)cc3Br)ncnc2cc1O[C@@H]1CO[C@@H]2[C@H]1OC[C@H]2F [US9796704, Entry 86] |  |  | in the range around 525 nM | in the range around 525 nM | in the range around 525 nM |
| COc1cc2c(Nc3ccc(Cl)c(Cl)c3F)ncnc2cc1OC[C@@H]1CN2CCC[C@@H]2C(=O)N1 [US9796704, Entry 52] |  | in the range around 10500 nM | in the range around 10500 nM | in the range around 10500 nM |  |
| COc1cc2c(Nc3cccc(Cl)c3C)ncnc2cc1O[C@@H]1CO[C@@H]2[C@H]1OC[C@H]2F [US9796704, Entry 110] |  |  | in the range around 525 nM | in the range around 525 nM | in the range around 525 nM |
